Test results as given in article PMC4850295, “Using a Genetically Encoded Sensor to Identify Inhibitors of Toxoplasma gondii Ca^2+ Signaling” (The Journal of Biological Chemistry, 2016).
Values joined by “and” are separate entries in the source; they are usually repeats but may differ in a detail not shown here. Identical values can stand only once.

Test system: T1, GCaMP5-expressing T. gondii
T1 construct: whole extracellular parasites expressing GCaMP5 Ca2+ sensor
Set-up: species or system GCaMP5-expressing Toxoplasma gondii, extracellular; GCaMP5 fluorescence (cytosolic Ca2+) after 100 uM zaprinast in compound-pretreated extracellular parasites, background-subtracted, relative to zaprinast alone
Settings: 100 uM zaprinast stimulation, 10 min pretreatment, mean of two replicates, 0.23 h, 10 µM
How it was run: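 Read-out is GCaMP5 calcium fluorescence (ex 485/em 525 nm) taken 4 min after 100 μM zaprinast at 37 °C, following 10 min compound pretreatment at 10 μM in duplicate biological replicates. Values are basal-subtracted fold change versus zaprinast-only controls; parasites held extracellular in Ringer's solution.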

Structure (SMILES) | fold change in fluorescence relative to zaprinast alone
CCn1c(-c2nonc2N)nc2ccccc21 [SB-693162] | 0.7593 and 1.139
Nc1ncnc2occ(-c3ccc(NC(=O)Nc4cc(C(F)(F)F)ccc4F)cc3)c12 [SB-707548-A] | 1.011 and 0.2784

Same assay, conditions: 100 uM zaprinast stimulation; 10 min pretreatment; mean of two replicates; 0.23 h

Structure (SMILES) | fold change in fluorescence relative to zaprinast alone
COc1ccc2cc(-c3c(-c4ccncc4)nc(-c4ccc([S+](C)[O-])cc4C)n3C)ccc2c1 (stereo not shown) [SB-630812] | 1.111
COc1ccc2cc(-c3c(-c4ccncc4)nc(-c4ccc(S(C)(=O)=O)cc4C)n3C)ccc2c1 [SB-633825] | 0.9532
CCCC(=O)Nc1[nH]nc2ncc(-c3cccc4ccccc34)cc12 [SB-642057] | 0.9221
Nc1n[nH]c2cnc(-c3ccccc3)cc12 [SB-642124-AAA] | 1.394
COc1ccc2cc(-c3nc(-c4ccccc4C(C)C)[nH]c3-c3ccncc3)ccc2c1 [SB-660566] | 0.9646
CN1CCC(C(=O)Nc2n[nH]c3nnc(-c4ccccc4)cc23)CC1 [SB-678557-A] | 1.083
CN(C)CCOc1ccc(-c2cc(-c3ccc(Cl)c(O)c3)c(-c3ccncc3)[nH]2)cc1 [SB-684387-B] | 0.6076
CCN1CCC(C(=O)Nc2n[nH]c3nnc(-c4cccc(F)c4F)cc23)CC1 [SB-686709-A] | 1.08
c1ccc(-c2ccnc3[nH]ccc23)cc1 [SB-693578] | 1.319
CCN1CCC(CC(=O)Nc2n[nH]c3nnc(-c4cccc(F)c4F)cc23)CC1 [SB-698596-AC] | 1.047
O=C(Nc1n[nH]c2nc(-c3ccccc3)c(Br)cc12)C1CC1 [SB-708998] | 0.9523
O=C(Nc1n[nH]c2nc(-c3ccccc3)ccc12)C1CC1 [SB-708999] | 1.075
O=C(Nc1n[nH]c2nc(-c3ccc(O)cc3)ccc12)C1CC1 [SB-710363] | 1.137
COc1cccc(-c2ccc3c(NC(=O)C4CC4)n[nH]c3n2)c1 [SB-710903] | 1.151
COc1ccc(-c2ccc3c(NC(=O)C4CC4)n[nH]c3n2)cc1 [SB-711237] | 1.177
COc1ccccc1-c1ccc2c(NC(=O)C3CC3)n[nH]c2n1 [SB-711239] | 1.107
O=C(Nc1n[nH]c2nc(-c3cccc(O)c3)ccc12)C1CC1 [SB-711805] | 0.905
O=C(Nc1n[nH]c2nc(-c3ccccc3O)ccc12)C1CC1 [SB-711880] | 1.267
O=C(Nc1n[nH]c2nc(-c3ccc(O)cc3)c(Br)cc12)C1CC1 [SB-725317] | 1.144
Nc1ncnc2scc(-c3ccc(NC(=O)Cc4cc(F)ccc4F)cc3)c12 [SB-731254-M] | 1.242
O=C(Nc1n[nH]c2cc(-c3cccs3)ccc12)C1CC1 [SB-731284] | 1.194
CCN1CCN(CCCC(=O)Nc2n[nH]c3nc(-c4ccc(O)cc4)c(Br)cc23)CC1 [SB-731579] | 1.047
O=C(Nc1n[nH]c2cc(-c3ccsc3)ccc12)C1CC1 [SB-732932] | 1.052
O=C(Nc1n[nH]c2cc(-c3ccccc3)ccc12)C1CC1 [SB-732941] | 1.147
O=C(Nc1n[nH]c2cc(-c3ccccc3F)ccc12)C1CC1 [SB-733371] | 0.8641
CCn1c(-c2ccccc2)nc2cnccc21 [SB-733416] | 1.146
CCn1c(-c2ccoc2)nc2cnccc21 [SB-733887] | 1.127
O=C(Nc1n[nH]c2cc(-c3cccc(F)c3F)ccc12)C1CC1 [SB-733894] | 1.167

Same assay, conditions: 0.23 h, 10 µM

Structure (SMILES) | % of control remaining
O=C(Nc1n[nH]c2nnc(-c3cccnc3)cc12)C1CC1 [SB-675259-M] | 1.147
